Results taken from patent publication US4968819A, “Process for the preparation of chromene derivatives” (Alkaloida Vegyeszeti Gyar, priority 1983, dated 1990).
Where two headings read alike, the source gives them in different places.

How the values were obtained:
Type in all cases: in vivo
[1] = tested on: domestic fly (Musca domestica); experiment: Domestic fly test (larvae in treated nutrient medium); conditions: 0.1% related to milk, 0.05% related to total nutrient medium
Experimental: The fly larvae are grown on a nutrient medium of the following composition: 2 ml of milk; 2 ml of water; 2 g of wheat bran; 0.1 ml of saturated alcoholic nipagin solution.
The nutrient medium is filled into cylindrical glass vials (30×100 mm) and 25 fly larvae are raised in each vial. The test compound is dissolved in milk; the end concentration (related to milk) amounts to 0.1% which corresponds to 0.05% (related to the total nutrient medium). The solution of the active ingredient is admixed with the nutrient medium whereupon […] of domestic fly larvae of the I. stage are placed into each vial and the vials are closed with a hard cotton-wool stopper. The nymphs emerging from the larvae are collected in each vial, counted and kept in a Petri dish (diameter 25 mm) until flies hatch from the nymphs. The hatched flies are counted.

[2] = tested on: cabbage butterfly (Pieris brassicae); experiment: Cabbage butterfly test (sprayed cabbage seedlings); conditions: 50 EC; for pest or weed control at 0.1 % / pest or weed control at 0.01 %: Pieris brassicae, read-out: Killing rate of larvae
Experimental: From the 50 EC of the test compound a diluted series is prepared with water and the host seedlings (cabbage) are sprayed with this composition until the spray runs down. The spray is allowed to dry whereupon 20 young larvae of the II. stage are placed on each treated plant and the seedlings are kept under so-called "long-day" illumination (18 hours of illumination and 6 hours of darkness). The nibbled plants are replaced by similarly sprayed plants if necessary. The killing rate of the insects, the growth rate of the larvae and the morphological deformations of the surviving nymphs and adults are registered.
In the 50 EC compositions the concentration of compounds 23 and 25 amounts to 0.01% and that of the other compounds to 0.1%.

[3] = tested on: Caenorhabditis elegans; experiment: Caenorhabditis elegans test (treated NGM agar plate, young adults)
Experimental: (5) Caenorhabditis elegans 0.5 ml of the acetonous solution of the test compound is applied onto a NGM agar plate free from bacteria in a Petri dish. After the acetone has dried 25-30 young adults are placed on the plate. After 24 hours the surviving and killed insects are counted.

[4] = tested on: cotton bug (Dysdercus fasciatus); experiment: Cotton bug test (topical application on II. stage larvae); conditions: for AJH effect: adultoid symptoms
Experimental: (1) Cotton bug test A dilution series is prepared from the test compound with acetone and 0.2 μl of each dilution is topically applied onto the back part of larvae of the II. stage of growth with the aid of a Hamiltion syringe. The active ingredient is absorbed through the cuticula. The animals are kept in a large glass and fed with cotton grains and water. After adult shedding the surviving insects are observed for eventual adultoid symptoms, the egg-reproduction and the development of the ovules is evaluated too. (Remark: in the cotton bug test 50 insects are used).

[5] = tested on: tomato root gall nematode (Meloidogyne incognita); experiment: Tomato root gall nematode test (II. stage infective larvae, treated NGM agar plate); conditions: 72 hours; for mortality at 200 µg/mL / mortality at 400 µg/mL: Meloidogyne incognita
Experimental: (6) Root gall nematode The test is carried out on II. stage infective larvae, which are collected from the root of tomato plant, placed on a filter and incubated in sterile water at 25° C. The hatched larvae are collected every 24 hours and immediately placed onto the treated nutrient medium. As nutrient medium NGM agar plate free from bacterial is used. 0.5 ml of the acetoneous solution of the test compound is applied onto the surface of the plate in a Petri-dish. After the acetone has evaporated 5 μl of the larva suspension is applied onto each plate. After 72 hours the surviving and killed insects are counted.

[6] = Caenorhabditis elegans, 24 h, read-out: Lethality
[7] = 200 μg/ml, first test, read-out: mortality 1.
[8] = 200 μg/ml, second test, read-out: mortality 2.
[9] = 200 μg/ml, read-out: mortality Average
[10] = 400 μg/ml, first test, read-out: mortality 1.
[11] = 400 μg/ml, second test, read-out: mortality 2.
[12] = 400 μg/ml, read-out: mortality Average

COc1cc(OCC(C)C)cc2c1C=CC(C)(C)O2 [Compound 49]
Survival adult [1]: 0% | Survival nymph [1]: 0% | pest or weed control at 0.1 % ([2]; 0.1%): 100%

CCCCOc1cc2c(cc1OCCCC)OC(C)(C)C=C2 [Compound 14]
Size of descendant population ([3]; 200 μg/ml): reduced | Size of descendant population ([3]; 400 μg/ml): reduced | mortality at 200 µg/mL [3, 6]: 30% | mortality at 400 µg/mL [3, 6]: 80%

COc1c(OCC(C)C)ccc2c1OC(C)(C)C=C2 [Compound 54]
Survival adult ([2]; 0.1%): 7% | Survival nymph ([2]; 0.1%): 7% | pest or weed control at 0.1 % ([2]; 0.1%): 93%

COc1cc2c(cc1OCC(C)C)OC(C)(C)C=C2 [Compound 21]
LD50 [4]: 0.4 μg/insect

CC1(C)C=Cc2cc3c(cc2O1)OCO3 [Compound 4]
Size of descendant population ([3]; 100 μg/ml): no descendants | Size of descendant population ([3]; 200 μg/ml): no descendants | Size of descendant population ([3]; 400 μg/ml): no descendants | mortality at 100 µg/mL [3, 6]: 100% | mortality at 200 µg/mL [3, 6]: 100% | mortality at 400 µg/mL [3, 6]: 100% | Nematocidal effect ([5]; 200 μg/ml): strong | Nematocidal effect ([5]; 400 μg/ml): strong | mortality at 200 µg/mL [5, 7]: 84% | mortality at 200 µg/mL [5, 8]: 69% | mortality at 200 µg/mL [5, 9]: 77% | mortality at 400 µg/mL [5, 10]: 96% | mortality at 400 µg/mL [5, 11]: 92% | mortality at 400 µg/mL [5, 12]: 94%

C#CCOc1ccc2c(c1)OC(C)(C)C=C2 [Compound 37]
Remarks ([3]; 200 μg/ml): paralysation | Size of descendant population ([3]; 200 μg/ml): no descendants | Remarks ([3]; 400 μg/ml): paralysation | Size of descendant population ([3]; 400 μg/ml): no descendants | mortality at 200 µg/mL [3, 6]: 100% | mortality at 400 µg/mL [3, 6]: 100%

COc1ccc2c(c1)OC(C)(C)C=C2 [Compound 23, 7-methoxy-2,2-dimethyl-2H-chromene, reference compound]
Survival adult [1]: 33.3% | Survival nymph [1]: 100% | Size of descendant population ([3]; 200 μg/ml): reduced | Size of descendant population ([3]; 400 μg/ml): no descendants | Survival adult ([2]; 0.01%): 50% | Survival nymph ([2]; 0.01%): 59% | pest or weed control at 0.01 % ([2]; 0.01%): 41%

CC(C)=CCOc1cc2c(cc1OCC=C(C)C)OC(C)(C)C=C2 [Compound 10]
LD50 [4]: 0.6 μg/insect

Cc1cc(OC(C)C)cc2c1C=CC(C)(C)O2 [Compound 40]
Survival adult [1]: 27.6% | Survival nymph [1]: 50.9%

CCOc1cc(C)c2c(c1)OC(C)(C)C=C2 [Compound 38]
Survival adult [1]: 14.8% | Survival nymph [1]: 40% | Survival adult ([2]; 0.1%): 19% | Survival nymph ([2]; 0.1%): 19% | pest or weed control at 0.1 % ([2]; 0.1%): 81%

Cc1cc(OC2CCCC2)cc2c1C=CC(C)(C)O2 [Compound 43]
Survival adult [1]: 31.8% | Survival nymph [1]: 52.7% | pest or weed control at 0.1 % ([2]; 0.1%): 100%

CCOc1cc2c(cc1OC)OC(C)(C)C=C2 [Compound 34]
Survival adult [1]: 12.8% | Survival nymph [1]: 85% | Remarks ([3]; 200 μg/ml): paralysation | Size of descendant population ([3]; 200 μg/ml): reduced | Remarks ([3]; 400 μg/ml): paralysation | Size of descendant population ([3]; 400 μg/ml): some descendants | mortality at 200 µg/mL [3, 6]: 15% | mortality at 400 µg/mL [3, 6]: 23%

COc1cc(OC(C)C)cc2c1C=CC(C)(C)O2 [Compound 47]
Survival adult ([2]; 0.1%): 9% | Survival nymph ([2]; 0.1%): 13% | pest or weed control at 0.1 % ([2]; 0.1%): 87%

C#CCOc1cc(C)c2c(c1)OC(C)(C)C=C2 [Compound 44]
Survival adult [1]: 10.6% | Survival nymph [1]: 50.9% | Remarks ([3]; 200 μg/ml): paralysation | Size of descendant population ([3]; 200 μg/ml): some descendants | Remarks ([3]; 400 μg/ml): paralysation | Size of descendant population ([3]; 400 μg/ml): no descendants | Survival adult ([2]; 0.1%): 17% | Survival nymph ([2]; 0.1%): 17% | pest or weed control at 0.1 % ([2]; 0.1%): 83%

CCCOc1ccc2c(c1)OC(C)(C)C=C2 [Compound 25]
Survival adult ([2]; 0.01%): 39% | Survival nymph ([2]; 0.01%): 48% | pest or weed control at 0.01 % ([2]; 0.01%): 52%

CCOc1ccc2c(c1OC)OC(C)(C)C=C2 [Compound 50]
Survival adult [1]: 4.2% | Survival nymph [1]: 5.4% | Size of descendant population ([3]; 200 μg/ml): reduced | Size of descendant population ([3]; 400 μg/ml): no descendants | Survival adult ([2]; 0.1%): 24% | Survival nymph ([2]; 0.1%): 24% | pest or weed control at 0.1 % ([2]; 0.1%): 76%

COc1ccc2c(c1OC)OC(C)(C)C=C2 [Compound 35]
Survival adult [1]: 0% | Survival nymph [1]: 12% | Remarks ([3]; 200 μg/ml): paralysation | Size of descendant population ([3]; 200 μg/ml): reduced | Remarks ([3]; 400 μg/ml): paralysation | Size of descendant population ([3]; 400 μg/ml): no descendants | mortality at 200 µg/mL [3, 6]: 67% | mortality at 400 µg/mL [3, 6]: 100%

CCC(C)Oc1ccc2c(c1)OC(C)(C)C=C2 (stereo not shown) [Compound 28]
Survival adult [1]: 25.6% | Survival nymph [1]: 115%

CCC(C)Oc1cc2c(cc1OC)C=CC(C)(C)O2 (stereo not shown) [Compound 20]
LD50 [4]: 0.4 μg/insect | AJH effect [4]: 0.1 μg/insect

C=CCOc1cc2c(cc1OC)C=CC(C)(C)O2 [Compound 7]
Size of descendant population ([3]; 200 μg/ml): no descendants | Size of descendant population ([3]; 400 μg/ml): no descendants | mortality at 200 µg/mL [3, 6]: 90% | mortality at 400 µg/mL [3, 6]: 90%

CC(C)COc1ccc2c(c1)OC(C)(C)C=C2 [Compound 29]
Survival adult [1]: 28.2% | Survival nymph [1]: 100%

COc1c(OC(C)C)ccc2c1OC(C)(C)C=C2 [Compound 52]
Survival adult [1]: 0% | Survival nymph [1]: 12% | Size of descendant population ([3]; 200 μg/ml): reduced | Size of descendant population ([3]; 400 μg/ml): reduced | Survival adult ([2]; 0.1%): 32% | Survival nymph ([2]; 0.1%): 36% | pest or weed control at 0.1 % ([2]; 0.1%): 64%

CCC(C)Oc1ccc2c(c1OC)OC(C)(C)C=C2 (stereo not shown) [Compound 53, 7sec. butoxy-8-methoxy-2,2-dimethyl-2chromene]
Size of descendant population ([3]; 200 μg/ml): reduced | Size of descendant population ([3]; 400 μg/ml): reduced | pest or weed control at 0.1 % ([2]; 0.1%): 100%

COc1cc2c(cc1OC(C)C)OC(C)(C)C=C2 [Compound 8]
LD50 [4]: 0.45 μg/insect | Sterilizing effect [4]: 0.2 μg/insect | AJH effect [4]: 1 μg/insect | Size of descendant population ([3]; 200 μg/ml): reduced | Size of descendant population ([3]; 400 μg/ml): no descendants | mortality at 200 µg/mL [3, 6]: 70% | mortality at 400 µg/mL [3, 6]: 80%

CCCOc1cc(OC)c2c(c1)OC(C)(C)C=C2 [Compound 46]
Survival adult [1]: 6.4% | Survival nymph [1]: 9.1% | Survival adult ([2]; 0.1%): 12% | Survival nymph ([2]; 0.1%): 12% | pest or weed control at 0.1 % ([2]; 0.1%): 88%

C=CCOc1cc2c(cc1OCC=C)OC(C)(C)C=C2 [Compound 5]
Size of descendant population ([3]; 200 μg/ml): some descendants | Size of descendant population ([3]; 400 μg/ml): no descendants | Nematocidal effect ([5]; 400 μg/ml): medial | mortality at 200 µg/mL [5, 7]: 18% | mortality at 200 µg/mL [5, 8]: 29% | mortality at 200 µg/mL [5, 9]: 23% | mortality at 400 µg/mL [5, 10]: 45% | mortality at 400 µg/mL [5, 11]: 43% | mortality at 400 µg/mL [5, 12]: 44%

CCC(C)Oc1cc(C)c2c(c1)OC(C)(C)C=C2 (stereo not shown) [Compound 41]
Survival adult [1]: 12.5% | Survival nymph [1]: 25.4% | Survival adult ([2]; 0.1%): 14% | Survival nymph ([2]; 0.1%): 19% | pest or weed control at 0.1 % ([2]; 0.1%): 11%

CCC(C)Oc1cc(OC)c2c(c1)OC(C)(C)C=C2 (stereo not shown) [Compound 48, 5-methoxy-7-sec. butoxy-2,2-dimethyl-2H-chromene]
pest or weed control at 0.1 % ([2]; 0.1%): 100%

CCOc1cc2c(cc1OCC)OC(C)(C)C=C2 [Compound 2]
Nematocidal effect ([5]; 200 μg/ml): strong | Nematocidal effect ([5]; 400 μg/ml): strong | mortality at 200 µg/mL [5, 7]: 74% | mortality at 200 µg/mL [5, 8]: 69% | mortality at 200 µg/mL [5, 9]: 72% | mortality at 400 µg/mL [5, 10]: 83% | mortality at 400 µg/mL [5, 11]: 90% | mortality at 400 µg/mL [5, 12]: 87%
